Results as given in patent publication US20190297888A1, “FUNGICIDAL COMPOUNDS AND MIXTURES FOR FUNGAL CONTROL IN CEREALS” (Dow AgroSciences LLC, priority 2016, published 2019).

Columns and labels:
Assay type in all cases: in vivo
[1] = system: Zymoseptoria tritici (SEPTTR); experiment: Field assessment of Compound I and penthiopyrad on leaf blotch of wheat (AUDPC % control); settings: AUDPC-based, 3 field trials
Excerpt: (§1) Treatments consisting of the compound of Formula I and fungicide compound penthiopyrad were applied either using individually or as a two-way mixture of penthiopyrad with the compound of Formula I. The compound of Formula I was applied with Agnique BP-420 (50% w/w at 0.3% v/v) at 75 and 150 g ai/ha and Penthiopyrad (Vertisan) was applied at 125 and 200 g ai/ha. Commercial standards used in the studies were Fluxapyroxad (Imtrex), applied at 100 g ai/ha, and Metconazole+Fluxapyroxad (Librax), applied at 161 g ai/ha.
Fungicidal treatments containing the compound of Formula I and penthiopyrad, either individually or as a two-way mixture, were assessed against leaf spot of wheat (SEPTTR) in three separate field trials. In the first trial, fungicidal treatments were applied at B33 (3% infection at application on L3) growth stage of winter wheat (TRZAW, Dinosor variety). The treatments were part of an experimental trial designed as a randomized complete block with four replications and a plot of approximately 1×6 m. Treatments were applied at water volume of 200 L/ha, using a backpack plot sprayer (BKPCKENG, FLATFANA nozzle) and pressurized at 200 kPa.
In the second trial, fungicidal treatments were applied twice at B32 (curative, 25% infection at application on L5) and B37-39 (5% infection at application on L3) growth stages of winter wheat (TRZAW, Consort variety). The treatments were part of an experimental trial designed as a randomized complete block with four replications and a plot of approximately 1×2 m. Treatments were applied at water volume of 200 L/ha, using a backpack plot sprayer (BKPCKAIR, Flat fan nozzle) and pressurized at 210 kPa.
In the final trial, fungicidal treatments were applied twice at B32 (protective, 15% infection at application on L6) and B37-39 (12% infection at application on L5) growth stages of winter wheat (TRZAW, Smaragd variety). The treatments were part of an experimental trial designed as a randomized complete block with four replications and a plot of approximately 2×3 m. Treatments were applied at water volume of 200 L/ha, using a backpack plot sprayer (BICYCAIR, FLATFANA nozzle) and pressurized at 220 kPa.
Disease severity (percentage of visual diseased foliage on whole plot or leaves) in […] field trials was recorded following EPPO PP1/26 guideline prescriptions. Area under the disease progress curve (AUDPC) was calculated for each plot in both trials using the sets of recorded severity data. Relative AUDPC (% control based on AUDPC) was calculated as percent of the nontreated control. Final results for the control of leaf spot of wheat by the compound of Formula I, penthiopyrad and mixtures are reported as an average of the relative AUDPC calculated over all three field trials. […]

[2] = system: Puccinia triticina (PUCCRT); experiment: Field assessment of Compound I and penthiopyrad on brown rust of wheat (AUDPC % control); settings: AUDPC-based, 2 field trials
Excerpt: as §1
Fungicidal treatments containing the compound of Formula I and penthiopyrad, either individually or as a two-way mixture, were assessed against brown rust of wheat (PUCCRT) in two separate field trials. In the first trial, fungicidal treatments were applied at B37-39 (protectant, approximately 0% infection at application) growth stages of wheat (TRZAW, MV Vanek variety) under natural infection of brown rust. The treatment was part of an experimental trial designed as a randomized complete block with four replications and a plot of approximately 2×3 m. Fungicidal treatments were applied at a water volume of 200 L/ha, using a backpack plot sprayer with a TEEJET QJ90-2XTT110 015 Nozzle.
In the second trial, fungicidal treatments containing the compound of Formula I and penthiopyrad, either individually or as a two-way mixture, were applied at B33 (curative, approximately 6.6% infection at application) growth stage of wheat (TRZAW, Miradoux variety) under natural infection of brown rust. The treatments were part of an experimental trial designed as a randomized complete block with four replications and a plot of approximately 2×3 m. Fungicidal treatments were applied at a water volume of 200 L/ha, using a backpack plot sprayer with a HARDI MD 110-02 Nozzle.
(§2) Disease severity (percentage of visual diseased foliage on whole plot or leaves) in both field trials was recorded following EPPO PP1/26 guideline prescriptions. Area under the disease progress curve (AUDPC) was calculated for each plot in both trials using the sets of recorded severity data. Relative AUDPC (% control based on AUDPC) was calculated as percent of the nontreated control. Final results for the control of brown rust of wheat by the compound of Formula I, penthiopyrad and mixtures are reported as an average of the relative AUDPC calculated over all […] field trials. Statistical analysis was done according to ANOVA and Tukey's test (p=0.10).

[3] = system: Puccinia striiformis (PUCCST); experiment: Field assessment of Compound I and penthiopyrad on yellow rust of wheat (AUDPC % control); settings: AUDPC-based, 2 field trials
Excerpt: as §1
Fungicidal treatments containing the compound of Formula I and penthiopyrad, either individually or as a two-way mixture, were assessed against yellow rust of wheat (PUCCST) in two separate field trials. In the first trial, fungicidal treatments were applied twice at B31-32 (early curative, 2% infection at application on L3) and B37-39 (0% infection at application on L) growth stages of winter wheat (TRZAW, Fairplay variety). The treatments were part of an experimental trial designed as a randomized complete block with four replications and a plot of approximately 1×6 m. Treatments were applied at water volume of 200 L/ha, using a backpack plot sprayer (BKPCKENG, F110-015 Hardi (3) Flat fan nozzle) and pressurized at 200 kPa.
In the second trial, fungicidal treatments containing the compound of Formula I and penthiopyrad, either individually or as a two-way mixture, were applied twice at B31-32 (early curative, 5% infection on L5 at application) and B37-39 (early curative, 5% infection on L1 and L2 at application) growth stages of wheat (TRZAW, Torch variety). The treatment was part of an experimental trial designed as a randomized complete block with four replications and a plot of approximately 2×3 m. Treatments were applied at water volume of 200 L/ha, using a backpack precision plot sprayer (BKCKAIR, F110-03 Hypro (4) Flat fan nozzle) and pressurized at 300 kPa.
as §2, with “yellow” for “brown”

**Q.** CC(C)CC(C)c1sccc1NC(=O)c1cn(C)nc1C(F)(F)F (stereo not drawn) [Penthiopyrad, N-[2-(1,3-dimethylbutyl)-3-thienyl]-1-methyl-3-(trifluoromethyl)-1H-pyrazole-4-carboxamide] was tested. Which “SEPTTR % Control” value ([1]; rate 125 g ai/ha) did it give?
**A.** 42.3%

**Q.** And the “SEPTTR % Control” value ([1]; rate 200 g ai/ha)?
**A.** 51.4%

**Q.** And the “PUCCRT % Control” value ([2]; rate 125 g ai/ha)?
**A.** 84.2%

**Q.** What about the “PUCCRT % Control” value ([2]; rate 200 g ai/ha) of the same compound?
**A.** 85.1%

**Q.** And the “PUCCST % Control” value ([3]; rate 125 g ai/ha)?
**A.** 39.6%

**Q.** What about the “PUCCST % Control” value ([3]; rate 200 g ai/ha) of the same compound?
**A.** 46.5%
